Reference: ChEMBL document CHEMBL3414474, “Design and synthesis of piperidine derivatives as novel human heat shock protein 70 inhibitors for the treatment of drug-resistant tumors” (Eur J Med Chem, 2015)

Columns and labels:
Homo sapiens = species: Homo sapiens; assay: Inhibition of HSP70 (unknown origin) at 200 uM pre-incubated for 30 mins followed by ATP addiction and measured after 3 hrs by malachite green reagent based colorimetric assay
[1] = Growth inhibition of human BT474 cells at 5 uM incubated for 72 hrs by ATP detection based luminescent assay; assay type: functional; settings: BT-474, 72 h, read-out: GI
MDA-MB-361 = assay: Growth inhibition of human MDA-MB-361 cells at 5 uM incubated for 72 hrs by ATP detection based luminescent assay; assay type: functional; settings: MDA-MB-361, 72 h, read-out: GI
[2] = Growth inhibition of human BT/LapR1.0 cells at 5 uM incubated for 72 hrs by ATP detection based luminescent assay; assay type: functional; settings: read-out: GI
MDA-MB-453 = assay: Growth inhibition of human MDA-MB-453 cells at 5 uM incubated for 72 hrs by ATP detection based luminescent assay; assay type: functional; settings: MDA-MB-453, 72 h, read-out: GI
[3] = Growth inhibition of human SKBR3 cells at 5 uM incubated for 72 hrs by ATP detection based luminescent assay; assay type: functional; settings: SK-BR-3, 72 h, read-out: GI
[4] = Growth inhibition of human SK/LapR1.0 cells at 5 uM incubated for 72 hrs by ATP detection based luminescent assay; assay type: functional; settings: read-out: GI
[5] = Binding affinity to human HSP70 at 25 degC by surface plasmon resonance assay

| inhibition (Homo sapiens) [%] | Kd [5] [µM] | SMILES | inhibition of growth at 5 µM [1] [%] | inhibition of growth at 5 µM (MDA-MB-361) [%] | inhibition of growth at 5 µM [2] [%] | inhibition of growth at 5 µM (MDA-MB-453) [%] | inhibition of growth at 5 µM [3] [%] | inhibition of growth at 5 µM [4] [%] |
| --- | --- | --- | --- | --- | --- | --- | --- | --- |
| 16.7 | – | CSc1nccc(N2CCC(N(C)Cc3ccccc3C#N)CC2)n1 | 74.2 | 64.1 | 68.1 | 68.7 | 87.6 | 80.7 |
| – | – | CSc1ncc(CN2CCC(N(C)Cc3c(F)cccc3Cl)CC2)s1 | 49.5 | 47.2 | 59.9 | 65.3 | 9.2 | 4.5 |
| – | – | CN(Cc1ccc(F)cc1)C1CCN(Cc2cnc(Cl)s2)CC1 | 7.1 | -1.3 | 9 | 11 | – | -0.1 |
| – | – | CSc1nccc(N2CCC(N(C)Cc3ccc(Cl)c(Cl)c3)CC2)n1 | – | – | – | 60 | – | – |
| – | – | CSc1nccc(N2CCC(N(C)Cc3cccc(F)c3)CC2)n1 | 67.1 | 50.4 | 63.9 | 66.2 | 32.6 | 35.2 |
| 10.6 | 0.2 | CSc1ncc(CN2CCC(N(C)Cc3ccc(C)cc3)CC2)s1 | – | – | – | – | – | – |
| 11.3 | – | CN(Cc1ccc(C#N)cc1)C1CCN(Cc2cnc(Cl)s2)CC1 | – | – | – | – | – | 7.5 |
| – | – | CSc1ncc(CN2CCC(N(C)Cc3ccccc3C)CC2)s1 | – | – | 1.4 | – | – | 6.9 |
| – | – | CCOc1ncc(CN2CCC(N(C)Cc3ccccc3Cl)CC2)s1 | – | – | – | – | – | 0.6 |
| – | – | Cc1ccc(CN(C)C2CCN(Cc3cnc(Cl)s3)CC2)cc1 | – | – | 16 | – | – | 8.4 |
| – | – | CSc1ncc(CN2CCC(N(C)Cc3cccc(F)c3)CC2)s1 | – | – | – | – | – | 2.1 |
| – | – | CSc1nccc(N2CCC(N(C)Cc3cc(Cl)ccc3Cl)CC2)n1 | 61 | 45.7 | 56.9 | 69.3 | 19.3 | 29.4 |
| 53.1 | – | COc1ccc(-c2nc(-c3cc(C(F)(F)F)cc(C(F)(F)F)c3)n(Cc3ccc(C(N)=O)cc3)c2-c2ccc(OC)cc2)cc1 | – | – | – | – | – | – |
| – | – | CN(Cc1c(F)cccc1Cl)C1CCN(Cc2cnc(Cl)s2)CC1 | – | – | 3.2 | – | 9.8 | 1.5 |
| – | – | COc1cc(N2CCC(N(C)Cc3ccc(F)cc3)CC2)ncn1 | 7.8 | 4.9 | 8.1 | 5 | 7.6 | 5.7 |
| 5.49 | – | CCOc1ncc(CN2CCC(N(C)Cc3ccc(C#N)cc3)CC2)s1 | – | – | – | – | – | 6.7 |
| 4.5 | – | CCOc1ncc(CN2CCC(N(C)Cc3ccc(Cl)cc3Cl)CC2)s1 | – | – | – | – | – | 12 |
| – | – | CSc1nccc(N2CCC(N(C)Cc3ccc(C)cc3)CC2)n1 | 69.2 | 55.7 | 65.8 | 66.6 | 38.9 | 42 |
| – | – | CN(Cc1ccccc1C#N)C1CCN(Cc2cnc(Cl)s2)CC1 | -4.1 | -8.5 | 4 | 8.2 | 7.3 | 4.2 |
| – | – | CCOc1ncc(CN2CCC(N(C)Cc3c(Cl)cccc3Cl)CC2)s1 | – | – | – | – | – | 5.1 |
| – | – | CCOc1ncc(CN2CCC(N(C)Cc3cccc(Cl)c3)CC2)s1 | – | – | – | – | – | 5.2 |
| 6.11 | – | COc1nccc(N2CCC(N(C)Cc3ccccc3Cl)CC2)n1 | 36.7 | 45.1 | 28.6 | 60.8 | 41.4 | 35.8 |
| – | – | COc1cc(N2CCC(N(C)Cc3ccc(Cl)c(Cl)c3)CC2)ncn1 | 9.8 | 6.5 | 9.2 | – | – | 28 |
| – | – | COc1cc(N2CCC(N(C)Cc3cccc(Cl)c3)CC2)ncn1 | – | – | 9.4 | – | – | – |
| – | – | COc1cc(N2CCC(N(C)Cc3ccc(C)cc3)CC2)ncn1 | 5 | – | 8 | – | – | 22 |
| – | – | CS(=O)(=O)CCNCc1ccc(-c2ccc3ncnc(Nc4ccc(OCc5cccc(F)c5)c(Cl)c4)c3c2)o1 [LAPATINIB] | – | – | 18 | – | 79 | – |

| inhibition (Homo sapiens) [%] | Kd [5] [µM] | SMILES | inhibition of growth at 5 µM [1] [%] | inhibition of growth at 5 µM (MDA-MB-361) [%] | inhibition of growth at 5 µM [2] [%] | inhibition of growth at 5 µM (MDA-MB-453) [%] | inhibition of growth at 5 µM [3] [%] | inhibition of growth at 5 µM [4] [%] |
| --- | --- | --- | --- | --- | --- | --- | --- | --- |
| – | – | COc1cc(N2CCC(N(C)Cc3ccccc3Cl)CC2)ncn1 | – | – | – | – | – | 29 |
| – | – | CN(Cc1cccc(F)c1)C1CCN(Cc2cnc(Cl)s2)CC1 | 2.4 | 3.2 | 5.7 | 4.4 | 4.2 | 1.3 |
| – | – | CCOc1ncc(CN2CCC(N(C)Cc3ccccc3C#N)CC2)s1 | – | – | – | – | – | 7.2 |
| 6.21 | – | CSc1ncc(CN2CCC(N(C)Cc3ccc(Cl)cc3Cl)CC2)s1 | 70 | – | – | – | – | – |
| – | – | COc1nccc(N2CCC(N(C)Cc3ccc(C)cc3)CC2)n1 | 61.5 | 30.1 | 58.8 | 68.9 | 19.7 | 13.5 |
| – | – | COc1nccc(N2CCC(N(C)Cc3cccc(F)c3)CC2)n1 | 9.9 | 8.5 | – | – | 9.2 | 3.9 |
| – | – | COc1nccc(N2CCC(N(C)Cc3cc(Cl)ccc3Cl)CC2)n1 | 27.5 | 22 | 22.7 | 50.6 | 24.7 | 11.7 |
| 43 | 0.206 | N#Cc1ccc(COC[C@H]2O[C@@H](n3c(NCc4ccc(Cl)c(Cl)c4)nc4c(N)ncnc43)[C@H](O)[C@@H]2O)cc1 | – | – | – | – | – | – |
| – | – | Clc1ncc(CN2CCC(NCc3ccc(Cl)c(Cl)c3)CC2)s1 | 11 | – | – | – | – | – |
| – | – | CCOc1ncc(CN2CCC(N(C)Cc3cc(Cl)ccc3Cl)CC2)s1 | 5.6 | – | 9.6 | – | 9.4 | 5.2 |
| – | – | Cc1ccccc1CN(C)C1CCN(Cc2cnc(Cl)s2)CC1 | 1.5 | 4.4 | 4 | 3.5 | 9.7 | 5.1 |
| – | – | CCOc1ncc(CN2CCC(N(C)Cc3ccc(F)cc3)CC2)s1 | – | – | – | – | 26 | – |
| – | – | CN(Cc1ccc(Cl)c(Cl)c1)C1CCN(Cc2cnc(Cl)s2)CC1 | – | – | – | – | – | 5.3 |
| – | – | CN(Cc1cccc(Cl)c1)C1CCN(Cc2cnc(Cl)s2)CC1 | 7.1 | 9.7 | 8.4 | – | – | 8.5 |
| – | 0.281 | COc1nccc(N2CCC(N(C)Cc3ccc(F)cc3)CC2)n1 | – | – | – | – | – | 9 |
| – | – | COc1nccc(N2CCC(N(C)Cc3ccc(C#N)cc3)CC2)n1 | 60.4 | 27.7 | 58.1 | 66.2 | 31.7 | 16.6 |
| 7.73 | 0.205 | CSc1nccc(N2CCC(N(C)Cc3ccc(F)cc3)CC2)n1 | – | 46 | – | – | – | – |
| – | – | CN(Cc1c(Cl)cccc1Cl)C1CCN(Cc2cnc(Cl)s2)CC1 | 70 | 36.3 | 66.3 | 72.4 | 37.8 | 4.5 |
| – | – | Fc1ccc(CNC2CCN(Cc3cnc(Cl)s3)CC2)cc1 | 70 | 36.3 | 66.3 | 72.4 | 37.8 | 40.4 |
| – | – | COc1cc(N2CCC(N(C)Cc3cc(Cl)ccc3Cl)CC2)ncn1 | 5.4 | 8.4 | 5.6 | 9.4 | 5.2 | 9.4 |
| – | – | Clc1cccc(CNC2CCN(Cc3cnc(Cl)s3)CC2)c1 | 3.8 | 3.2 | 7.2 | 2.4 | – | 4.1 |
| – | – | COc1cc(N2CCC(N(C)Cc3ccc(C#N)cc3)CC2)ncn1 | – | – | – | – | – | 8.8 |
| – | 0.245 | CSc1ncc(CN2CCC(N(C)Cc3cccc(Cl)c3)CC2)s1 | – | – | – | – | – | 7.3 |
| – | – | COc1nccc(N2CCC(N(C)Cc3ccccc3C#N)CC2)n1 | 71.6 | 53.3 | 72.7 | 79.5 | 86.5 | 74.3 |
| 10.7 | – | CSc1ncc(CN2CCC(N(C)Cc3ccc(Cl)c(Cl)c3)CC2)s1 | – | – | – | – | – | – |
